Patent US4155931A, “Ureylene phenylene anionic naphthalenesulfonic acids” (American Cyanamid Company, priority 1978, dated 1979)
Counter-ions that a name gives are not always drawn.

Assays:
[1] = target: activated human C1 (Homo sapiens, UniProt P09871); experiment: Test Code 026 (C1 inhibitor): ability of activated human C1 to destroy fluid phase human C2 in the presence of C4; format: biochemical; details: two-fold serial dilution assay, higher well number indicates higher activity
Excerpt: (§1) An active inhibitor protects C2 from C1 and C4; (ii) Test Code 035 (C3-C9 inhibitor)--This test determines the ability of the late components of human complement (C3-C9) to lyse EAC 142 in the presence of appropriate dilutions of the test compound. An active inhibitor protects EAC 142 from lysis by human C3-C9; (iii) Test Code 036 (C-Shunt inhibitor)--In this test human erythrocytes rendered fragile are lysed in autologous serum via the shunt pathway activated by cobra venom factor in the presence of appropriate dilutions of the test compound. Inhibition of the shunt pathway results in failure of lysis; (iv) Forssman Vasculitis Test--Here, the well known complement dependent lesion, Forssman vasculitis, is produced in guinea pigs by intradermal injection of rabbit anti-Forssman antiserum. The lesion is measured in terms of diameter, edema and hemorrhage and the extent to which a combined index of these is inhibited by prior intraperitoneal injection of the test compound at 200 mg/kg is then reported, unless otherwise stated; (v) Forssman Shock Test--Lethal shock is produced in guinea pigs by an i.v. injection of anti-Forssman antiserum and the harmonic mean death time of treated guinea pigs is compared with that of simultaneous controls; (vi) Complement Level Reduction Test--In this test, the above dosed guinea pigs, or others, are bled for serum and the complement level is determined in undiluted serum by the capillary tube method of U.S. Pat. No. 3,876,376 and compared to undosed control guinea pigs; and (vii) Cap 50 Test--Here, appropriate amounts of the test compound are added to a pool of guinea pig serum in vitro, after which the undiluted serum capillary tube assay referred to above is run. The concentration of compound inhibiting 50% is reported.
(§2) **Activity in wells a serial dilution assay. Higher well number indicates
(§3) higher activity. The serial dilutions are two-fold.

[2] = tested on: late components of human complement (C3-C9); experiment: Test Code 035 (C3-C9 inhibitor, C-Late): lysis of EAC 142 by late components of human complement; format: cell-based; details: two-fold serial dilution assay
Excerpt: as §1, §2, §3

[3] = tested on: shunt pathway; experiment: Test Code 036 (C-Shunt inhibitor): lysis of fragile human erythrocytes in autologous serum via shunt pathway activated by cobra venom factor; format: cell-based; details: Table II (intermediates); two-fold serial dilution assay
Excerpt: as §1, §2, §3

[4] = reported in literature; cited from earlier work
[5] = tested on: complement system; details: reported in literature or known; cited from earlier work
[6] = tested on: total hemolytic complement activity of human serum; details: in vitro and in vivo, reported in literature; cited from earlier work
[7] = tested on: whole complement; experiment: Complement Level Reduction Test: whole complement in serum of dosed guinea pigs, capillary tube assay; format: in vivo; details: guinea pig, intraperitoneal, 200 mg/kg
[8] = Table I, higher well number indicates higher activity

Compound	Cl 026 (C1 inhibitor) ([1]; Table I)	C-Late 035 (C3-C9 inhibitor) [2, 8]	Cl 026 (C1 inhibitor) ([1]; Table II (intermediates))	C-Late 035 (C3-C9 inhibitor) ([2]; Table II (intermediates))	Shunt Inhibition 036 [3]	also measured
Cc1ccc(C(=O)Nc2ccc(S(=O)(=O)[O-])c3cc(S(=O)(=O)[O-])cc(S(=O)(=O)[O-])c23)cc1NC(=O)c1ccc(NC(=O)Nc2ccc(C(=O)Nc3cc(C(=O)Nc4ccc(S(=O)(=O)[O-])c5cc(S(=O)(=O)[O-])cc(S(=O)(=O)[O-])c45)ccc3C)c(S(=O)(=O)[O-])c2)cc1S(=O)(=O)[O-].[Na+].[Na+].[Na+].[Na+].[Na+].[Na+].[Na+].[Na+] [8,8'-[Ureylenebis[[(2-sulfo-4,1-phenylenecarbonyl)imino]-(4-methyl-3,1-phenylenecarbonyl)imino]]di-1,3,5-naphthalenetrisulfonic acid, octasodium salt]	+3 Wells	+1 Wells				
Cc1ccc(C(=O)Nc2cc(C(=O)O)cc(C(=O)Nc3ccc(S(=O)(=O)O)c4cc(S(=O)(=O)O)cc(S(=O)(=O)O)c34)c2)cc1N [5-(3-Amino-p-toluamido)-N-(4,6,8-trisulfo-1-naphthyl)isophthalamic acid, trisodium salt]			+3 Wells	N	N	
NC[C@H]1CC[C@H](C(=O)O)CC1 [tranexamic acid]						use in treatment of hereditary angioneurotic edema [4]: used with success in the treatment of hereditary angioneurotic edema
Cc1ccc(C(=O)Nc2ccc(S(=O)(=O)O)c3cc(S(=O)(=O)O)cc(S(=O)(=O)O)c23)cc1NC(=O)c1cccc(NC(=O)Nc2cccc(C(=O)Nc3cc(C(=O)Nc4ccc(S(=O)(=O)O)c5cc(S(=O)(=O)O)cc(S(=O)(=O)O)c45)ccc3C)c2)c1 [Suramin, reference compound]	+4 Wells	+2 Wells				complement inhibitor / anticomplementary effect [5]: moderately active as a complement inhibitor
pentosan-polysulfoester						anticomplementary activity of human serum (reduction in total hemolytic complement activity) [6]: anticomplementary activity of human serum
Cc1ccc(S(=O)(=O)Nc2ccc(S(=O)(=O)[O-])c3cc(S(=O)(=O)[O-])cc(S(=O)(=O)[O-])c23)cc1NC(=O)c1cc(N)cc(C(=O)O)c1.[Na+].[Na+].[Na+] [5-Amino-2'-methyl-5'-(4,6,8-trisulfo-1-naphthylsulfamoyl)-isophthalanilic acid, trisodium salt]			+2 Wells	N	N	
Cc1ccc(C(=O)Nc2ccc(S(=O)(=O)O)c3cc(S(=O)(=O)O)cc(S(=O)(=O)O)c23)cc1NC(=O)c1ccc(N)cc1S(=O)(=O)O [8-[3-(4-Amino-2-sulfobenzamido)-p-toluamido]-1,3,5-naphthalenetrisulfonic acid, tetrasodium salt]			+2 Wells	N	N	
Cc1ccc(C(=O)Nc2ccc(S(=O)(=O)O)c3cc(S(=O)(=O)O)cc(S(=O)(=O)O)c23)cc1NC(=O)c1cc(NC(=O)Nc2cc(C(=O)O)cc(C(=O)Nc3cc(C(=O)Nc4ccc(S(=O)(=O)O)c5cc(S(=O)(=O)O)cc(S(=O)(=O)O)c45)ccc3C)c2)cc(C(=O)O)c1 [5,5"-Ureylenebis[2'-methyl-5"-[(4,6,8-trisulfo-1-naphthyl)carbamoyl]isophthalanilic acid], octasodium salt]	+5 Wells	+2 Wells				% Inhibition ([7]; 30 minutes): -17%; % Inhibition ([7]; 60 minutes): -50%; % Inhibition ([7]; 120 minutes): -57%
NCCCCCC(=O)O [epsilon-aminocaproic acid]						use in treatment of hereditary angioneurotic edema [4]: used with success in the treatment of hereditary angioneurotic edema
heparin						complement inhibitor / anticomplementary effect [5]: anticomplementary effect
Cc1ccc(NC(=O)c2ccc(NC(=O)Nc3ccc(C(=O)Nc4ccc(C)c(S(=O)(=O)Nc5cc(S(=O)(=O)O)cc6cc(S(=O)(=O)O)cc(S(=O)(=O)O)c56)c4)c(S(=O)(=O)O)c3)cc2S(=O)(=O)O)cc1S(=O)(=O)Nc1cc(S(=O)(=O)O)cc2cc(S(=O)(=O)O)cc(S(=O)(=O)O)c12 [8,8'-[Ureylenebis[[(2-sulfo-4,1-phenylenecarbonyl)imino](2-methyl-4,1-phenylene)sulfonyl]imino]]di-1,3,6-naphthalenetrisulfonic acid, octasodium salt]	+4 Wells	+2 Wells				
Cc1ccc(C(=O)Nc2ccc(S(=O)(=O)[O-])c3cc(S(=O)(=O)[O-])cc(S(=O)(=O)[O-])c23)cc1NC(=O)c1cc(NC(=O)Nc2cc(C(=O)O)cc(C(=O)Nc3cc(C(=O)Nc4ccc(S(=O)(=O)[O-])c5cc(S(=O)(=O)[O-])cc(S(=O)(=O)[O-])c45)ccc3C)c2)cc(C(=O)O)c1.[Na+].[Na+].[Na+].[Na+].[Na+].[Na+] [5,5"-Ureylenebis[2'-methyl-5'-[(4,6,8-trisulfo-1-naphthyl)carbamoyl]isophthalanilic acid], hexasodium salt]	+5 Wells	+2 Wells				
Cc1ccc(NC(=O)c2ccc(N)cc2S(=O)(=O)O)cc1S(=O)(=O)Nc1cc(S(=O)(=O)O)cc2cc(S(=O)(=O)O)cc(S(=O)(=O)O)c12 [8-[5-(4-Amino-2-sulfobenzamido)-o-toluenesulfonamido]-1,3,6-naphthalenetrisulfonic acid, tetrasodium salt]			+4 Wells	N	N	
Cc1ccc(C(=O)Nc2ccc(S(=O)(=O)O)c3cc(S(=O)(=O)O)cc(S(=O)(=O)O)c23)cc1NC(=O)c1cc(N)cc(C(=O)O)c1 [5-Amino-2'-methyl-5'-[(4,6,8-trisulto-1-naphthyl)carbamoyl]isophthalanilic acid, trisodium salt]			+2 Wells	N	N	
Nc1ccc(C(=O)Nc2cccc(S(=O)(=O)Nc3cc(S(=O)(=O)O)cc4cc(S(=O)(=O)O)cc(S(=O)(=O)O)c34)c2)c(S(=O)(=O)O)c1 [8-[N^3-(4-Amino-2-sulfobenzoyl)metanilamido]-1,3,6-naphthalenetrisulfonic acid, tetrasodium salt]			+3 Wells	N	N	
Cc1ccc(C(=O)Nc2cc(C(=O)O)cc(C(=O)Nc3ccc(S(=O)(=O)O)c4cc(S(=O)(=O)O)cc(S(=O)(=O)O)c34)c2)cc1NC(=O)Nc1cc(C(=O)Nc2cc(C(=O)O)cc(C(=O)Nc3ccc(S(=O)(=O)O)c4cc(S(=O)(=O)O)cc(S(=O)(=O)O)c34)c2)ccc1C [5,5'-Ureylenebis[(4-methyl-3,1-phenylenecarbonyl)imino]bis[N-(4,6,8-trisulfo-1-naphthyl)isophthalamic acid], hexasodium slt]	+5 Wells	+2 Wells				
Nc1ccc2cc(S(=O)(=O)[O-])cc(O)c2c1N=Nc1ccc(NC(=O)Nc2ccc(N=Nc3c(N)ccc4cc(S(=O)(=O)[O-])cc(O)c34)c(S(=O)(=O)[O-])c2)cc1S(=O)(=O)[O-].[Na+].[Na+].[Na+].[Na+] [chlorazol fast pink, 3,3'-ureylenebis[6-(2-amino-8-hydroxy-6-sulfo-1-naphthylazo)benzenesulfonic acid], tetrasodium salt]						complement inhibitor / anticomplementary effect [5]: anticomplementary effect
Cc1cc(C)c(S(=O)(=O)Nc2cc(S(=O)(=O)[O-])cc3cc(S(=O)(=O)[O-])cc(S(=O)(=O)[O-])c23)cc1NC(=O)c1ccc(NC(=O)Nc2ccc(C(=O)Nc3cc(S(=O)(=O)Nc4cc(S(=O)(=O)[O-])cc5cc(S(=O)(=O)[O-])cc(S(=O)(=O)[O-])c45)c(C)cc3C)c(S(=O)(=O)[O-])c2)cc1S(=O)(=O)[O-].[Na+].[Na+].[Na+].[Na+].[Na+].[Na+].[Na+].[Na+] [8,8'-[Ureylenebis[(2-sulfo-4,1-phenylenecarbonyl)imino(4,6-dimethyl-3,1-phenylenesulfonyl)imino]]di-1,3,6-naphthalenetrisulfonic acid, octasodium salt]	+5 Wells	+2 Wells				
